Type: in vivo, dog
Conditions: 48 mg/kg intravenously at 1 mg/kg/minute; two dogs
Experimental: The compounds under test were administered to rats or mice intraperitoneally. The loss of the righting reflex was noted and the duration of sleep measured objectively with reference to the loss of the righting reflex. The compounds under test were also administered by slow perfusion to dogs. The moment when the dog fell asleep and the duration of sleep was noted.
Two dogs each weighing 11 kg. received intravenously 48 mg/kg of the product of Example 1 perfused at the rate of 1 mg/kg/minute. Sleep appeared at the end of 25 minutes and lasted for 15 minutes. The animals were sleepy for 1 hour after the end of the perfusion.

In the case of `Cc1cccc(Nc2ncccc2C(=O)OCCN2CCOCC2)c1C` [Example 1, β-Morpholino ethyl nixylate], the duration of sleep is reported as 15 min, the “time animals were sleepy after the end of the perfusion” value is reported as 1 h and the “time at which sleep appeared” value is reported as 25 min.
